What was measured:
[1] = tested on: KRAS G12V-dependent Ba/F3 cells; assay: Ba/F3 proliferation assay, KRAS G12V; type: cell-based; details: Mus musculus, BaF3, 72 h, AlamarBlue;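 also: proliferation IC50 in KRAS G12V-dependent Ba/F3 cells read by AlamarBlue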
Protocol: Plasmids containing KRASG12 mutants (i.e. […], G12C, G12V) are obtained from GeneScript. To generate KRASG12-dependent Ba/F3 models, Ba/F3 cells are transduced with retroviruses containing vectors that harbor KRASG12 isoforms. Platinum-E cells (Cell Biolabs) are used for retrovirus packaging. Retrovirus is added to Ba/F3 cells. To ensure infection, 4 μg/mL polybrene is added and cells are spinfected. […] Cells with an infection efficiency of 10% to 20% are further cultivated and puromycin selection with 1 μg/mL is initiated. As a control, parental Ba/F3 cells are used to show selection status. Selection is considered successful when parental Ba/F3 cells cultures died. To evaluate the transforming potential of KRASG12 mutations, the growth medium is no longer supplemented with IL-3. Ba/F3 cells harboring the empty vector are used as a control. Approximately ten days before conducting the experiments, puromycin is left out.
Compounds are added using an Access Labcyte Workstation with a Labcyte Echo 550 or 555 accoustic dispenser. All treatments are performed in technical duplicates. […] AlamarBlue™ (ThermoFisher), a viability stain, is added and fluorescence measured in the PerkinElmer Envision HTS Multilabel Reader. The raw data are imported into and analyzed with the Boehringer Ingelheim proprietary software MegaLab (curve fitting based on the program PRISM, GraphPad Inc.).

AsPC-1 cells = assay: AsPC-1 CTG proliferation assay (120 h) (pancreatic cancer, G12D); type: cell-based; details: Homo sapiens, ASPC1
Protocol: AsPC-1 CTG Proliferation Assay (120 h) (Pancreatic Cancer, G12D)
The CTG assay is designed to measure quantitatively the proliferation of AsPC-1 cells (ATCC […]), using the CellTiter Glow Assay Kit (Promega G7571). Cells are grown in RPMI medium (ATCC) supplemented with Fetal Calf Serum (Life Technologies, Gibco BRL, Cat. No. 10270-106). On “day 0” 2000 AsPC-1 cells are seeded in 60 μL RPMI ATCC+10% FCS+Penstrep in a 384-well plate, flat and clear bottom (Greiner, PNr. 781091). Cells are then incubated in the plates at 37° C. in a CO2 incubator overnight. On day 1, compounds (10 mM stock in DMSO) are added with the ECHO acoustic liquid handler system (Beckman Coulter), including DMSO controls. Plates are incubated for 120 h, and cell viability is measured using CellTiter-Glo luminescent cell viability reagent (Promega product code G7570). Viability (stated as percent of control) is defined as relative luminescence units RLU of each well divided by the RLU of cells in DMSO controls. IC50 values are determined from viability measurements by non-linear regression using a four-parameter model.

SK-CO-1 cells = assay: SK-CO-1 CTG proliferation assay (120 h) (CRC, G12V); type: cell-based; details: Homo sapiens; SK-CO-1 cells (CRC, G12V), CTG 120 h
Protocol: SK-CO-1 CTG Proliferation Assay (120 h) (CRC, G12V)
SK-CO-1 cells (ATCC HTB-39) are dispensed into 384-well plates, flat and clear bottom (Greiner, PNr. 781091) at a density of 500 cells per well in 60 μL EMEM (Sigma M5650)+10% Fetal Calf Serum (HyClone, PNr.: SH30084.03) and incubated at 37° C. in a CO2 incubator overnight. The next day, compounds (10 mM stock in DMSO) are added with the ECHO acoustic liquid handler system (Beckman Coulter), including DMSO controls. Plates are incubated for 120 h, and cell viability is measured using CellTiter-Glo luminescent cell viability reagent (Promega product code G7570). Viability (stated as percent of control) is defined as relative luminescence units RLU of each well divided by the RLU of cells in DMSO controls. IC50 values are determined from viability measurements by non-linear regression using a four-parameter model.

[2] = Plasma protein binding assay (PPB), equilibrium dialysis, 10% FCS in PBS; type: in vitro ADME; details: bovine, read-out: PPB 10% FCS (% fu)
Protocol: Binding of test compounds to plasma was determined using equilibrium dialysis (ED) and quantitative mass spectrometry interfaced with liquid chromatography (LC-MS). In brief, ED was performed with dialysis devices consisting of two chambers separated by a semipermeable membrane with a molecular weight cut-off of 5-10 kg/mol. One chamber was filled with 10% FCS in PBS containing 1-10 μmol/L test compound and the other chamber was filled with phosphate-buffer saline (PBS) with or without dextran. The dialysis chamber was incubated for 3-5 hours at 37° C. After incubation, protein was precipitated from aliquots of each chamber and the concentration of test compound in the supernatant of the plasma-containing compartment (Cserum) and of the buffer-containing compartment (Cbuffer) was determined by LC-MS. The fraction of unbound test compound (not bound to plasma) (fu) was calculated according to the following equation: […]

CYP3A4 = CYP3A4 (Homo sapiens (Human), UniProt P08684); assay: Mechanism based inhibition of CYP3A4 assay (MBI 3A4); type: in vitro ADME; details: hydroxy-midazolam formation after 30 min vs 0 min preincubation, 25 uM, human liver microsomes
Protocol: After preincubation, the incubate is diluted 1:10 and the substrate midazolam is added for the main incubation (15 min). The main incubation is quenched with acetonitrile and the formation of hydroxy-midazolam is quantified via LC/MS-MS. The formation of hydroxy-midazolam from the 30 min preincubation relative to the formation from the 0 min preincubation is used as a readout. Values of less than 100% mean that the substrate midazolam is metabolized to a lower extent upon 30 min preincubation compared to 0 min preincubation. In general low effects upon 30 min preincubation are desired (corresponding to values close to 100%/not different to the values determined with water control).

CYP3A4, sequence (P08684 whole entry): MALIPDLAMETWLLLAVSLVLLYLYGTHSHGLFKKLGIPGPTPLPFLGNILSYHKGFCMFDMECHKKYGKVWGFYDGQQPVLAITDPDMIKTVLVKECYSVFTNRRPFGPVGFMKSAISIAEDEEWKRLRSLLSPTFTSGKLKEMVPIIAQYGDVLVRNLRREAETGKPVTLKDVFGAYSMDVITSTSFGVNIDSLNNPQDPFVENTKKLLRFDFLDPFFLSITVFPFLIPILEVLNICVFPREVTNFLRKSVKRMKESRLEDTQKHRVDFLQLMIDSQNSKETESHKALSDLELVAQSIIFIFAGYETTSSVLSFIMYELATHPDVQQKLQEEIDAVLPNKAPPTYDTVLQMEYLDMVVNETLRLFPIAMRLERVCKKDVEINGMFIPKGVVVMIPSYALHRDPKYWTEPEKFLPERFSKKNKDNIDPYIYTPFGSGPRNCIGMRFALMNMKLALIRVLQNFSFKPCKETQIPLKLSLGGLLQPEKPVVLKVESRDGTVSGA

IC50 [1]	IC50 (AsPC-1 cells)	IC50 (SK-CO-1 cells)	fraction unbound [2]	MBI 3A4 (CYP3A4)	Compound
253 nM	86 nM	987 nM	0.51	34%	C[C@H](Oc1cc(N2CCNC3(CC3)C2)nc(-c2onc3c2CCC[C@@]32CCCc3sc(N)c(C#N)c32)n1)[C@@H]1CCCN1C [I-5]
–	2370 nM	1490 nM	0.36	–	C[C@H]1CN(C)CCCN1c1cc(N2CCN(C)CC2)nc(-c2onc3c2CCC[C@@]32CCCc3sc(N)c(C#N)c32)n1 [I-7]
496 nM	2850 nM	10800 nM	0.8	–	C[C@H](Oc1cc(N2CCN3CCC3C2)nc(-c2onc3c2CCC[C@@]32CCCc3sc(N)c(C#N)c32)n1)[C@@H]1CCCN1C (some centres unmarked) [I-9]
247 nM	–	–	0.7	72%	C[C@H](Oc1cc(N2CCNCC23CCOC3)nc(-c2onc3c2CCC[C@@]32CCCc3sc(N)c(C#N)c32)n1)[C@@H]1CCCN1C (some centres unmarked) [I-10]
693 nM	903 nM	772 nM	0.39	–	C[C@H](Oc1cc(N2CCNC[C@@]23CCOC3)nc(-c2noc3c2CCC[C@@]32CCCc3sc(N)c(C#N)c32)n1)[C@@H]1CCCN1C [II-51]
38 nM	1550 nM	192 nM	0.26	–	C[C@H](Oc1cc(N2CCOC3(CC3)C2)nc(-c2noc3c2CCC[C@@]32CCCc3sc(N)c(C#N)c32)n1)[C@@H]1CCCN1C [II-61]
5 nM	1070 nM	24 nM	0.23	–	C[C@H](Oc1cc(N2CCNC2=O)nc(-c2noc3c2CCC[C@@]32CCCc3sc(N)c(C#N)c32)n1)[C@@H]1CCCN1C [II-64]
40 nM	3560 nM	360 nM	0.03	–	C[C@H](Oc1cc(-n2cnc3cccnc32)nc(-c2noc3c2CCC[C@@]32CCCc3sc(N)c(C#N)c32)n1)[C@@H]1CCCN1C [II-65]
21 nM	783 nM	71 nM	0.1	–	C[C@H](Oc1cc(N2CCCC3(COC3)C2)nc(-c2noc3c2CCC[C@@]32CCCc3sc(N)c(C#N)c32)n1)[C@@H]1CCCN1C [II-72]
11 nM	738 nM	40 nM	0.16	–	C[C@H](Oc1cc(N2CCOC3(COC3)C2)nc(-c2noc3c2CCC[C@@]32CCCc3sc(N)c(C#N)c32)n1)[C@@H]1CCCN1C [II-77]
18 nM	2830 nM	188 nM	0.15	–	Cc1nccn1-c1cc(O[C@@H](C)[C@@H]2CCCN2C)nc(-c2noc3c2CCC[C@@]32CCCc3sc(N)c(C#N)c32)n1 [II-79]
10 nM	5080 nM	148 nM	0.23	–	C[C@H](Oc1cc(-c2cncs2)nc(-c2noc3c2CCC[C@@]32CCCc3sc(N)c(C#N)c32)n1)[C@@H]1CCCN1C [II-80]
18 nM	5130 nM	447 nM	0.18	–	C[C@H](Oc1cc(-c2ccn(C3COC3)n2)nc(-c2noc3c2CCC[C@@]32CCCc3sc(N)c(C#N)c32)n1)[C@@H]1C[C@H](F)CN1C [II-83]
17 nM	3060 nM	116 nM	–	–	C[C@H](Oc1cc(-c2ccn(-c3ccsc3)n2)nc(-c2noc3c2CCC[C@@]32CCCc3sc(N)c(C#N)c32)n1)[C@@H]1CCCN1C [II-84]
18 nM	3040 nM	198 nM	–	73%	C[C@H](Oc1cc(-c2ccn(-c3ccccc3)n2)nc(-c2noc3c2CCC[C@@]32CCCc3sc(N)c(C#N)c32)n1)[C@@H]1CCCN1C [II-89]
115 nM	3810 nM	451 nM	0.01	–	C[C@H](Oc1cc(N2CCc3cccnc32)nc(-c2noc3c2CCC[C@@]32CCCc3sc(N)c(C#N)c32)n1)[C@@H]1CCCN1C [II-90]
27 nM	3920 nM	279 nM	0.09	–	C[C@H](Oc1cc(-n2cccc3cnnc2-3)nc(-c2noc3c2CCC[C@@]32CCCc3sc(N)c(C#N)c32)n1)[C@@H]1CCCN1C [II-92]
45 nM	4640 nM	140 nM	0.05	–	C[C@H](Oc1cc(-n2ccnc2Cl)nc(-c2noc3c2CCC[C@@]32CCCc3sc(N)c(C#N)c32)n1)[C@@H]1CCCN1C [II-93]
52 nM	9770 nM	257 nM	0.28	–	C[C@H](Oc1cc(-c2cn(C3COC3)nn2)nc(-c2noc3c2CCC[C@@]32CCCc3sc(N)c(C#N)c32)n1)[C@@H]1CCCN1C [II-100]
28 nM	2990 nM	257 nM	0.23	–	C[C@H](Oc1cc(-c2ccc(N)nc2)nc(-c2noc3c2CCC[C@@]32CCCc3sc(N)c(C#N)c32)n1)[C@@H]1CCCN1C [II-101]
4 nM	2770 nM	37 nM	0.04	–	C[C@H](Oc1cc(-n2ccc(C#N)n2)nc(-c2noc3c2CCC[C@@]32CCCc3sc(N)c(C#N)c32)n1)[C@@H]1CCCN1C [II-102]
–	–	–	0.07	53%	Cc1nc(-c2cc(O[C@@H](C)[C@@H]3CCCN3C)nc(-c3noc4c3CCC[C@@]43CCCc4sc(N)c(C#N)c43)n2)cs1 [II-103]
12 nM	–	–	0.18	78%	C[C@H](Oc1cc(-c2ccn3ncnc3c2)nc(-c2noc3c2CCC[C@@]32CCCc3sc(N)c(C#N)c32)n1)[C@@H]1CCCN1C [II-104]
33 nM	2010 nM	64 nM	0.39	–	C[C@H](Oc1cc(-n2cc(Cn3ccnc3)nn2)nc(-c2noc3c2CCC[C@@]32CCCc3sc(N)c(C#N)c32)n1)[C@@H]1CCCN1C [II-113]
34 nM	–	–	0.43	–	C[C@H](Oc1cc(-c2cn(C3CCOCC3)nn2)nc(-c2noc3c2CCC[C@@]32CCCc3sc(N)c(C#N)c32)n1)[C@@H]1CCCN1C [II-115]
8 nM	6520 nM	64 nM	0.35	–	C[C@H](Oc1cc(-n2ccncc2=O)nc(-c2noc3c2CCC[C@@]32CCCc3sc(N)c(C#N)c32)n1)[C@@H]1CCCN1C [II-116]
12 nM	2100 nM	38 nM	0.4	–	C[C@H](Oc1cc(-n2cc(Cn3cncn3)nn2)nc(-c2noc3c2CCC[C@@]32CCCc3sc(N)c(C#N)c32)n1)[C@@H]1CCCN1C [II-124]
